Results on 34 compounds are retold here after patent US20080194574A1, “Pyrazine Derivatives As Effective Compounds Against Infectious Diseases” (AXXIMA PHARMACEUTICALS AG, priority 2003, published 2008).

Where two headings read alike, the source gives them in different places.

The test has as its target T1, viral kinase pUL-97 (Human cytomegalovirus, UniProt P16788).
T1 construct: The pUL-97 gene was cloned into a baculovirus vector; GST (glutathione S-transferase) (N); made in house; host or cells: Sf9 insect cells, baculovirus
Put plainly: UL97 kinase assay on Immobilon plate. Conditions: inhibition of UL 97 kinase activity, read-out: Activity Class [A, B, C]. The test is classed as biochemical. The protocol: UL97 Kinase-Assay on Immobilon Plate
The effect of pyrazine derivatives of this invention was tested on the activity of the viral kinase pUL-97. This kinase is derived from human cytomegalovirus (HCMV) (M. Marschall et al., Journal of General Virology, 2001, 82, 1439-1450). The pUL-97 gene was cloned into a baculovirus vector in order to produce GST (glutathione S-transferase) fusion protein. Insect cells (Sf9) were infected and GST-UL-97 purified via glutathione affinity columns according to standard procedures.
The pUL-97 kinase reaction was performed as described (M. Marschall et al., Journal of General Virology, 2001, 82, 1439-1450). Briefly, 10 μl Assay buffer (3 μM ATP, 60 μg/ml myelin basic protein (MBP) as substrate), 1.0 μCi γ-[^33P]ATP and 10 μl Basic buffer (20 mM Tris-HCl pH7.5, 0.5 mM MnCl2, 1 mM DTT (Dithiothreitol)) were given to the test tube before adding various concentrations of pyrazine derivatives. The reaction was started by adding 0.2 μl pUL-97 kinase, purified from infected Sf9-insect cells as described above. The total volume was adjusted with Basic buffer to a final volume of 30 μl. The reaction mix was incubated for 1 hr at 30° C. For negative control, 10 μl 0.1M EDTA (Ethylene Diamine tetraacetate) was added to reaction mix before addition of pUL-97 protein kinase. The reaction was stopped by addition of 10 μl 0.1 M EDTA.
Measuring Incorporation of Radioactivity:
The Immobilon plate (Millipore) was rinsed with 50 μl methanol/well. Following addition of 100 μl 0.1 M EDTA, 20 μl of each kinase reaction mix was added to one well of the Immobilon plate. Each well was washed 4× with 250 μl 0.75% phosphoric acid and 1× with 50 μl methanol. After addition of 50 μl scintillation cocktail (Roth, Germany) per well incorporation of radioactivity was measured using a Betareader (Wallac) and enzymatic activity calculated.

[1] abbreviates: class by IC50 / % inhibition at 10 μM or 100 μM.
The mark [2] stands for this setting: class by IC50 / % inhibition at 10 or 100 μM.

T1 sequence (P16788 whole entry): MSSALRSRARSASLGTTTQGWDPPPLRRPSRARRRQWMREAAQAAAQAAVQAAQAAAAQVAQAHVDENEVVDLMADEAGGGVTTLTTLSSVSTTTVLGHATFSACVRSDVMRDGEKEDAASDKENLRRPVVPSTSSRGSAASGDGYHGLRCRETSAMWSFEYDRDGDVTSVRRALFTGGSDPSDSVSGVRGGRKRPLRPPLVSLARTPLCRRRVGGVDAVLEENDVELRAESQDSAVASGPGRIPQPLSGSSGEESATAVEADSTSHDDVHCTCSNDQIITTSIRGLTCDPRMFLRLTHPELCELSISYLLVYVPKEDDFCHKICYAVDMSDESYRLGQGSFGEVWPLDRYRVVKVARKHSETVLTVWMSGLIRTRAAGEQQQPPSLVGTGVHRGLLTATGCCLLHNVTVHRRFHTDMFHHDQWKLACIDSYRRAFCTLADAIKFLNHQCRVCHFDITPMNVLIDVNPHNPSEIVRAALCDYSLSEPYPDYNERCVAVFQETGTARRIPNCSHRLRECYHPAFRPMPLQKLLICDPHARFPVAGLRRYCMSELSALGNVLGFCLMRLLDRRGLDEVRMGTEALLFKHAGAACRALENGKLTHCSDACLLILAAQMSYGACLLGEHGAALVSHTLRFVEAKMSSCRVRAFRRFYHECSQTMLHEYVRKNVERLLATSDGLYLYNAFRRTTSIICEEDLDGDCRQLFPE

Take `COc1ccc(-c2cncc(N3CCN(c4ccc(C(F)(F)F)cc4)CC3)n2)cc1OC` [compound 310, 6′-(3,4-Dimethoxy-phenyl)-4-(4-trifluoromethyl-phenyl)-3,4,5,6-tetrahydro-2H-[1,2′]bipyrazinyl]: the IC50 under setting [1] is 10 to 100 µM.

On to `CCOc1ccc(-c2cncc(N3CCN(c4ccccc4F)CC3)n2)cc1` [compound 127, 6′-(4-Ethoxy-phenyl)-4-(2-fluoro-phenyl)-3,4,5,6-tetrahydro-2H-[1,2′]bipyrazinyl], for which, under setting [2], the IC50 was in the range of 10 to 100 µM.

As to `c1ccc(N2CCN(c3cncc(-c4ccc5ccccc5c4)n3)CC2)cc1` [compound 93, 6′-Naphthalen-2-yl-4-phenyl-3,4,5,6-tetrahydro-2H-[1,2′]bipyrazinyl], the IC50 under setting [2] lay within 1 to 10 µM.

In the case of `NC(=O)c1ccc(-c2cncc(NCc3ccccc3)n2)cc1` [compound 28, 4-(6-Benzylamino-pyrazin-2-yl)-benzamide], the IC50 under setting [2] was < 1 µM.

For the compound `Cc1cc(C)cc(-c2cncc(N3CCN(c4cccc(C)c4)C(C)C3)n2)c1` (stereo not shown) [compound 339, 6′-(3,5-Dimethyl-phenyl)-3-methyl-4-m-tolyl-3,4,5,6-tetrahydro-2H-[1,2′]bipyrazinyl], the IC50 under setting [1] is 10 to 100 µM.

For `CC(=O)c1ccc(-c2cncc(N3CCN(c4cccc(C)c4C)CC3)n2)cc1` [compound 298, 1-{4-[4-(2,3-Dimethyl-phenyl)-3,4,5,6-tetrahydro-2H-[1,2′]bipyrazinyl-6′-yl]-phenyl}-ethanone], the IC50 under setting [1] lay in the range of 10 to 100 µM.

As for `Cc1nc(C)c(N2CCN(c3ccncc3)CC2)nc1-c1cc2ccccc2s1` [compound 373, 6′-Benzo[b]thiophen-2-yl-3′,5′-dimethyl-4-pyridin-4-yl-3,4,5,6-tetrahydro-2H-[1,2′]bipyrazinyl], under setting [1], the IC50 was 10 to 100 µM.

`COc1ccccc1N1CCN(c2cncc(-c3ccc(C(C)(C)C)cc3)n2)CC1` [compound 88, 6′-(4-tert-Butyl-phenyl)-4-(2-methoxy-phenyl)-3,4,5,6-tetrahydro-2H-[1,2′]bipyrazinyl]: the IC50 under setting [2] is 10 to 100 µM.

With `Cc1ccc(N2CCN(c3cncc(-c4ccc(CO)cc4)n3)CC2)c(C)c1` [compound 321, {4-[4-(2,4-Dimethyl-phenyl)-3,4,5,6-tetrahydro-2H-[1,2′]bipyrazinyl-6′-yl]-phenyl}-methanol], the IC50 under setting [1] is 10 to 100 µM.

In the case of `Fc1ccc(N2CCN(c3cncc(-c4ccc(C(F)(F)F)cc4)n3)CC2)cc1` [compound 180, 4-(4-Fluoro-phenyl)-6′-(4-trifluoromethyl-phenyl)-3,4,5,6-tetrahydro-2H-[1,2′]bipyrazinyl], the IC50 under setting [2] fell in the range of 1 to 10 µM.

“6′-(4-Methylsulfanyl-phenyl)-4-pyridin-4-yl-3,4,5,6-tetrahydro-2H-[1,2′]bipyrazinyl [compound 66]”: the IC50 under setting [2] was 1 to 10 µM.

In the case of `Cc1cccc(N2CCN(c3cncc(-c4cc5ccccc5s4)n3)CC2C)c1` (stereo not shown) [compound 300, 6′-Benzo[b]thiophen-2-yl-3-methyl-4-m-tolyl-3,4,5,6-tetrahydro-2H-[1,2′]bipyrazinyl], under setting [1], the IC50 is 10 to 100 µM.

As to `CC(=O)c1cccc(-c2cncc(N3CCN(c4ccc(F)cc4F)CC3)n2)c1` [compound 273, 1-{3-[4-(2,4-Difluoro-phenyl)-3,4,5,6-tetrahydro-2H-[1,2′]bipyrazinyl-6′-yl]-phenyl}-ethanone], the IC50 under setting [1] is 10 to 100 µM.

As to `Fc1ccc(-c2cncc(N3CCN(c4ccncc4)CC3)n2)cc1Cl` [compound 33, 6′-(3-Chloro-4-fluoro-phenyl)-4-pyridin-4-yl-3,4,5,6-tetrahydro-2H-[1,2′]bipyrazinyl], the IC50 under setting [2] was < 1 µM.

Turning to `COc1ccc(N2CCN(c3cncc(-c4ccc(Oc5ccccc5)cc4)n3)CC2)cc1OC` [compound 168, 4-(3,4-Dimethoxy-phenyl)-6′-(4-phenoxy-phenyl)-3,4,5-6-tetrahydro-2H-[1,2′]bipyrazinyl], under setting [2], the IC50 lay within 10 to 100 µM.

Turning to `OCc1ccc(-c2cncc(N3CCN(c4cccc(C(F)(F)F)c4)CC3)n2)cc1` [compound 254, {4-[4-(3-Trifluoromethyl-phenyl)-3,4,5,6-tetrahydro-2H-[1,2′]bipyrazinyl-6′-yl]-phenyl}-methanol], under setting [1], the IC50 was in the range of 10 to 100 µM.

As to `c1ccc(-c2cncc(N3CCN(c4ccncc4)CC3)n2)cc1` [compound 67, 6′-Phenyl-4-pyridin-4-yl-3,4,5,6-tetrahydro-2H-[1,2′]bipyrazinyl], under setting [2], the IC50 was 1 to 10 µM.

With `N#Cc1ccc(-c2cncc(N3CCN(c4ccccn4)CC3)n2)cc1` [compound 303, 4-(4-Pyridin-2-yl-3,4,5,6-tetrahydro-2H-[1,2′]bipyrazinyl-6′-yl)-benzonitrile], the IC50 under setting [1] was in the range of 1 to 10 µM.

As for `Cc1cccc(-c2cncc(N3CCN(c4ccc(F)cc4)CC3)n2)c1` [compound 232, 4-(4-Fluoro-phenyl)-6′-m-tolyl-3,4,5,6-tetrahydro-2H-[1,2′]bipyrazinyl], the IC50 under setting [1] was 10 to 100 µM.

Consider `COc1cccc(N2CCN(c3cncc(-c4ccc(CO)cc4)n3)CC2)c1` [compound 323, {4-[4-(3-Methoxy-phenyl)-3,4,5,6-tetrahydro-2H-[1,2′]bipyrazinyl-6′-yl]-phenyl}-methanol], for which the IC50 under setting [1] lay within 1 to 10 µM.

On to `CC(=O)c1ccc(N2CCN(c3cncc(-c4cccc5ccccc45)n3)CC2)cc1` [compound 149, 1-[4-(6′-Naphthalen-1-yl-2,3,5,6-tetrahydro-[1,2′]bipyrazinyl-4-yl)-phenyl]-ethanone], for which, under setting [2], the IC50 was in the range of 10 to 100 µM.

As to `CCOc1ccc(-c2cncc(N3CCN(c4ccc(F)cc4F)CC3)n2)cc1` [compound 203, 4-(2,4-Difluoro-phenyl)-6′-(4-ethoxy-phenyl)-3,4,5,6-tetrahydro-2H-[1,2′]bipyrazinyl], under setting [1], the IC50 lay within 10 to 100 µM.

Regarding `CC(=O)c1ccc(N2CCN(c3cncc(-c4csc5ccccc45)n3)CC2)cc1` [compound 152, 1-[4-(6′-Benzo[b]thiophen-3-yl-2,3,5,6-tetrahydro-[1,2′]bipyrazinyl-4-yl)-phenyl]-ethanone], the IC50 under setting [2] fell in the range of 1 to 10 µM.

For the compound `Cc1ccc(-c2cncc(N3CCN(c4ccncc4)CC3)n2)cc1` [compound 220, 4-Pyridin-4-yl-6′-p-tolyl-3,4,5,6-tetrahydro-2H-[1,2′]bipyrazinyl], the IC50 under setting [1] is 1 to 10 µM.

As for `Clc1cccc(N2CCN(c3cncc(-c4ccsc4)n3)CC2)c1` [compound 80, 4-(3-Chloro-phenyl)-6′-thiophen-3-yl-3,4,5,6-tetrahydro-2H-[1,2′]bipyrazinyl], the IC50 under setting [2] lay in the range of 10 to 100 µM.

In the case of `COc1cccc(N2CCN(c3cncc(-c4ccc(C(N)=O)cc4)n3)CC2)c1` [compound 364, 4-[4-(3-Methoxy-phenyl)-3,4,5,6-tetrahydro-2H-[1,2′]bipyrazinyl-6′-yl]-benzamide], the IC50 under setting [1] was 1 to 10 µM.

For the compound `CC(C)(C)c1ccc(-c2cncc(N3CCN(c4cnccn4)CC3)n2)cc1` [compound 333, 6-(4-tert-Butyl-phenyl)-2′,3′,5′,6′-tetrahydro-[2,1′;4′,2″]terpyrazine], the IC50 under setting [1] fell in the range of 10 to 100 µM.

Turning to `CN(C)c1ccc(-c2cncc(N3CCN(c4cccc(C(F)(F)F)c4)CC3)n2)cc1` [compound 216, Dimethyl-{4-[4-(3-trifluoromethyl-phenyl)-3,4,5,6-tetrahydro-2H-[1,2′]bipyrazinyl-6′-yl]-phenyl}-amine], under setting [1], the IC50 lay within 10 to 100 µM.

As for `COc1cccc(-c2cncc(N3CCN(c4ccccc4F)CC3)n2)c1` [compound 113, 4-(2-Fluoro-phenyl)-6′-(3-methoxy-phenyl)-3,4,5,6-tetrahydro-2H-[1,2′]bipyrazinyl], under setting [2], the IC50 is 1 to 10 µM.

For the compound `CSc1ccc(-c2cncc(N3CCN(c4ccc(C)cc4)CC3)n2)cc1` [compound 137, 6′-(4-Methylsulfanyl-phenyl)-4-p-tolyl-3,4,5,6-tetrahydro-2H-[1,2′]bipyrazinyl], the IC50 under setting [2] was in the range of 1 to 10 µM.

Turning to `Fc1ccccc1N1CCN(c2cncc(-c3cccc4ccccc34)n2)CC1` [compound 249, 4-(2-Fluoro-phenyl)-6′-naphthalen-1-yl-3,4,5,6-tetrahydro-2H-[1,2′]bipyrazinyl], under setting [1], the IC50 fell in the range of 10 to 100 µM.

In the case of `Fc1ccc(N2CCN(c3cncc(-c4ccc(F)c(Cl)c4)n3)CC2)c(F)c1` [compound 145, 6′-(3-Chloro-4-fluoro-phenyl)-4-(2,4-difluoro-phenyl)-3,4,5,6-tetrahydro-2H-[1,2′]bipyrazinyl], the IC50 under setting [2] lay in the range of 10 to 100 µM.

Turning to `COc1ccccc1N1CCN(c2cncc(-c3ccoc3)n2)CC1` [compound 90, 6′-Furan-3-yl-4-(2-methoxy-phenyl)-3,4,5,6-tetrahydro-2H-[1,2′]bipyrazinyl], the IC50 under setting [2] lay in the range of 1 to 10 µM.

With `COc1ccccc1N1CCN(c2cncc(-c3ccc(C)cc3)n2)CC1` [compound 241, 4-(2-Methoxy-phenyl)-6′-p-tolyl-3,4,5,6-tetrahydro-2H-[1,2′]bipyrazinyl], the IC50 under setting [1] was in the range of 10 to 100 µM.
